From patent US9266871B2, “Trifluoromethyl-substituted fused pyrimidines and their use” (BAYER PHARMA AKTIENGESELLSCHAFT, priority 2013, dated 2016)

Legend:
[1] = biological target: T1, recombinant guanylate cyclase reporter cell line (Rattus norvegicus, UniProt P19686+P20595); assay: Effect on a recombinant guanylate cyclase reporter cell line; type: cell-based
T1 construct: expressed in transfected cells; host or cells: recombinant reporter cell line
T1 sequence (P19686 1-690): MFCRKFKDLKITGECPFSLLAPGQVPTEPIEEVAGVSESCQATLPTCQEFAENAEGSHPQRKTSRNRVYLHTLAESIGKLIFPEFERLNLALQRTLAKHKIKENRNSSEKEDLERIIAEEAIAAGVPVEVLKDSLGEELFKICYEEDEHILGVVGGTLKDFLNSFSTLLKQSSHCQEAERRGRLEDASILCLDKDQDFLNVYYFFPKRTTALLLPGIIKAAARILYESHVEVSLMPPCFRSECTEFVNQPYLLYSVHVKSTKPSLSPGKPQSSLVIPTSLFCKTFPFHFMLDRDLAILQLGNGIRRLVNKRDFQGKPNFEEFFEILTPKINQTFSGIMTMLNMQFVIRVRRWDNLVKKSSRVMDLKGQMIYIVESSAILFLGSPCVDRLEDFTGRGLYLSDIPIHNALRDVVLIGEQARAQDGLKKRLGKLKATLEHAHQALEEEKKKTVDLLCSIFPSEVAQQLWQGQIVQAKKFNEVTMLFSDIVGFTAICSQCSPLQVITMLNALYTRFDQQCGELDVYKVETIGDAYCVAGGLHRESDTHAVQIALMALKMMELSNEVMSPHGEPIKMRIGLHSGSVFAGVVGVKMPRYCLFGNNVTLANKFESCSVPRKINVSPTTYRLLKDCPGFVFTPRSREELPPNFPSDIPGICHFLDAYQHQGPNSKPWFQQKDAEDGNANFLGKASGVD
T1 sequence (P20595 1-619): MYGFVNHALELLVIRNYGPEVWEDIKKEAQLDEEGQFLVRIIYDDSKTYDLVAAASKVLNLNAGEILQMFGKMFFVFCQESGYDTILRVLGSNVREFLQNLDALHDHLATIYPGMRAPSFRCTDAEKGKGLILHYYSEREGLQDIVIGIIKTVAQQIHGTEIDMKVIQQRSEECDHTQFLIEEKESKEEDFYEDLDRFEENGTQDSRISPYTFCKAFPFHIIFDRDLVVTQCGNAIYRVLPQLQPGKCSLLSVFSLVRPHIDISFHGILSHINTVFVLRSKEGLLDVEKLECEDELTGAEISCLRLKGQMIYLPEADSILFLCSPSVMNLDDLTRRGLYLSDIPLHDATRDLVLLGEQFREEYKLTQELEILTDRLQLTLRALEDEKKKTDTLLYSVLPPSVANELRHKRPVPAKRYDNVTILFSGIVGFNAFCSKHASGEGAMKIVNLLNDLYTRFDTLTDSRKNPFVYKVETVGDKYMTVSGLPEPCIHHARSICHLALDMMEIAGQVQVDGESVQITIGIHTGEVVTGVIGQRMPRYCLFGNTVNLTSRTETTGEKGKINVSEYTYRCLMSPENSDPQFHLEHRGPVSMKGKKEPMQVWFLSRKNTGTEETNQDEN
Procedure: B-2. Effect on a Recombinant Guanylate Cyclase Reporter Cell Line
The cellular activity of the compounds according to the invention is determined using a recombinant guanylate cyclase reporter cell line, as described in F. Wunder et al., Anal. Biochem. 339, 104-112 (2005).

[2] = system: aorta rings; assay: Vasorelaxant effect in vitro (phenylephrine-contracted aorta rings); settings: Oryctolagus cuniculus; relaxation of phenylephrine-induced contraction, rabbit aorta rings
Procedure: B-1. Vasorelaxant Effect In Vitro
Rabbits are stunned by a blow to the neck and exsanguinated. The aorta is removed, freed from adhering tissue and divided into rings of a width of 1.5 mm. The rings are placed individually under an initial tension in 5 ml organ baths with Krebs-Henseleit solution which is at 37° C., is gassed with carbogen and has the following composition (in each case mM): sodium chloride: 119; potassium chloride: 4.8; calcium chloride dihydrate: 1; magnesium sulphate heptahydrate: 1.4; potassium dihydrogenphosphate: 1.2; sodium bicarbonate: 25; glucose: 10. The contractile force is determined with Statham UC2 cells, amplified and digitalized using A/D transducers (DAS-1802 HC, Keithley Instruments Munich), and recorded in parallel on linear recorders. To produce a contraction, phenylephrine is added to the bath cumulatively in increasing concentration. After several control cycles, the substance to be investigated is added in each further run in increasing dosage in each case, and the height of the contraction achieved is compared with the height of the contraction reached in the last preceding run. This is used to calculate the concentration needed to reduce the magnitude of the control value by 50% (IC50 value). The standard administration volume is 5 μl; the DMSO content in the bath solution corresponds to 0.1%.

MEC (minimum effective concentration) [1] [µM] | IC50 [2] [nM] | Structure (SMILES)
0.1 | 265 | C[C@@]1(C(F)(F)F)C(=O)Nc2nc(-c3nn(Cc4ncccc4F)c4ncc(F)cc34)nc(NCCC(F)(F)F)c21 (single isomer, unassigned) [Example 1-1]
1.0 | 237 | C[C@]1(C(F)(F)F)C(=O)Nc2nc(-c3nn(Cc4ncccc4F)c4ncc(F)cc34)nc(NCCC(F)(F)F)c21 (single isomer, unassigned) [Example 1-2]
